As usually defined, the half-life is how long it takes for the measured level to halve. In general, AUC(0-inf) refers to the area under the concentration-time curve extrapolated to infinity. Low readings indicate less exposure, high ones more exposure. For orientation: AUC(0-t) means the area under the concentration-time curve up to a stated or last time point. In general, Vd refers to the apparent volume that relates the amount in the body to the concentration in plasma or blood. Read a low Vd as confinement near the circulation. In general, MRT refers to a mean duration of stay, worked out from the concentration-time curve. By clearance is commonly meant a measure of how efficiently the substance is removed, as volume per time. Low values mean a low capacity for elimination, high ones a high capacity for elimination.

Where two headings read alike, the source gives them in different places.

One data set concerns Swiss mice liver tissues. Briefly: Ex vivo doxorubicin accumulation in Swiss mice liver tissues. To be noted: 2.5 μM lapatinib, 10 μM doxorubicin.
Another data set relates to ABCB1. The experiment in a line: ABCB1 expression by Western blot and qRT-PCR. The class given is cell-based, human. To be noted: HepG2/Adr cells, lapatinib for 24, 48 or 72 h. (Immunoblotting shows a protein as a band on a membrane.)
Data set [1] relates to HepG2 cells. Briefly: MTT cytotoxicity of doxorubicin with lapatinib, parental cells. The class given is cell-based, human. To be noted: lapatinib added 1 h before doxorubicin. Here is the method:
(§1) We collected the cells and seeded them at a density of 3.0 × 10^3 cells per well in 96-well plates. […] After 68 h, MTT (5 mg/mL, 20 μL) was added into each well and cultured for another 4 h. Then the medium was discarded and each well was added with 120 μL DMSO. Finally, optical density was measured at 540 nm with background subtraction at 670 nm by Model 550 Microplate Reader (Bio-Rad, Hercules, CA, USA).

For data set [2] the following is noted: human pharmacokinetic studies ref 35, 36; cited from earlier work.
Data set [3] concerns HepG2 cells. Briefly: Doxorubicin and rhodamine 123 accumulation by flow cytometry in parental cells. The class given is cell-based, human. To be noted: in the presence of lapatinib. Here is the method: The human hepatocellular carcinoma cell line HepG2 was obtained from American Type Culture Collection (ATCC). The Dox-selected derivative ABCB1-overexpressing HepG2/Adr subline was established as previous study. All cells were grown in DMEM supplemented with 10% fetal bovine serum, 100 units/mL streptomycin sulfate and 100 units/mL penicillin G sulfate, and maintained at 37°C in the presence of 5% CO2. HepG2/Adr cells were cultured with 1.2 μM Dox to maintain its ABCB1-overexpressing properties. All cells were grown in drug-free culture medium for more than 2 weeks before assay.
The accumulation of doxorubicin or rhodamine 123 in HepG2 and HepG2/Adr cells was measured as previously described. Verapamil, a known ABCB1 inhibitor, was used as a positive control.
A general note: In flow cytometry, cells or beads pass a laser one at a time.

For data set [4], the target named is T1, ABCB1-overexpressing HepG2/Adr cells (Homo sapiens, UniProt P08183).
T1 construct: The Dox-selected derivative ABCB1-overexpressing HepG2/Adr subline was established as previous study; endogenous in cells; host or cells: HepG2/Adr (doxorubicin-selected subline of human HepG2)
T1 sequence (P08183 whole entry): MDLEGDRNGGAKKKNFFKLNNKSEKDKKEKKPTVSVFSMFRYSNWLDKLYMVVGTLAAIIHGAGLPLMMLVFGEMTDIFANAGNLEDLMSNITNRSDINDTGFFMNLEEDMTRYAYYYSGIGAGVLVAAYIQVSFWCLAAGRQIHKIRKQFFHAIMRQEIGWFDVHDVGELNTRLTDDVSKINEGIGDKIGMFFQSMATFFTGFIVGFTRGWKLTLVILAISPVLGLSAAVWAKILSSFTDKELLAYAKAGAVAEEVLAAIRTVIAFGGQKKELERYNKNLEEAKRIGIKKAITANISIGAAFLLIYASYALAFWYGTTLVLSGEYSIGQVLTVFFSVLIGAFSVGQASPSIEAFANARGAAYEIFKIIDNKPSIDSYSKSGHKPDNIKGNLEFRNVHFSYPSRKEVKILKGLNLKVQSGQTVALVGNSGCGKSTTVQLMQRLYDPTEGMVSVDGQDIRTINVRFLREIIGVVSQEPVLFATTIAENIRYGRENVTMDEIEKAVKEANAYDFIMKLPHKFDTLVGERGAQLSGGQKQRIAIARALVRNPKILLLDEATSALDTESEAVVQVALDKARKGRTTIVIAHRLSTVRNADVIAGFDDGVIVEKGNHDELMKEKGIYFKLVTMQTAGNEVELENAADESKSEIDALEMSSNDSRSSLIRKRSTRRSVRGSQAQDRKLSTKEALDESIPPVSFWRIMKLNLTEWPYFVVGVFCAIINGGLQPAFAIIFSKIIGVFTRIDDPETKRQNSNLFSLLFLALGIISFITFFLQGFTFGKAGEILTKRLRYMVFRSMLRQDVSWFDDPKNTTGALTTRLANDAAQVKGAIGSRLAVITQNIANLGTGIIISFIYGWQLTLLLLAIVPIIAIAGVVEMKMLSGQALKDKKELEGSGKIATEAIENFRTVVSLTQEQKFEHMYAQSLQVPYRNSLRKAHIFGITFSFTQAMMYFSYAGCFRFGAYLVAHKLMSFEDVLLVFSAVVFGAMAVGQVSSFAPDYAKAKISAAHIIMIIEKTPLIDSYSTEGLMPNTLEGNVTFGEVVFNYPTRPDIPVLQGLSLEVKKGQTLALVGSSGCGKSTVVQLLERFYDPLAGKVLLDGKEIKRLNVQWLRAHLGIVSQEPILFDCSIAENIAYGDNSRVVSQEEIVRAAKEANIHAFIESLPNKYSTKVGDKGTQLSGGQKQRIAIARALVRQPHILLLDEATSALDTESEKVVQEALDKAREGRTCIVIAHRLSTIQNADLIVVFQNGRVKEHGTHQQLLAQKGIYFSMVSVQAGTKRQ
The experiment in a line: MTT cytotoxicity of doxorubicin with lapatinib, resistant cells. The class given is cell-based. To be noted: lapatinib added 1 h before doxorubicin. Here is the method:
as §1

A further data set concerns liver. The experiment in a line: Swiss mice hepatotoxicity model. Conditions: after 2 weeks, liver tissues.
The next data set is described as follows: in vivo. To be noted: both, NIH, mouse, iv.
A short description of data set [5]: Adverse events in the hepatobiliary system in patients with HER2-overexpressing metastatic breast cancer. To be noted: text count, cohort of 39 patients.

Procedure for Swiss mice liver tissues: The fresh normal liver tissue adjacent to the hepatocellular carcinoma retrieved from Sun Yat-sen university cancer center was used for the drug accumulation assay ex vivo. Informed consent was obtained from the patients before tissue collection. The work was approved by the ethics review committee at Sun Yat-sen University (Guangzhou, China). Liver tissues of 50-100 mg were cut into small pieces (1mm^3) and cultured in DMEM containing 15% fetal bovine serum at 37°C. […] Subsequently, the tissues were then collected, centrifuged and washed twice with cold PBS containing 10 μM verapamil. Then, liver tissues were resuspended in 1 ml/100 mg tissues lysis solution which contained 0.3 mol/l HCl and 60% ethanol (1:1) and was homogenized at 4°C and then centrifuged at 12 000 × g [43]. The supernatant was removed and its fluorescence signal was measured by a spectrofluorometer at λex 470 nm and λem 590 nm. Simultaneously, the standard curve of doxorubicin was made with the same condition. The doxorubicin accumulation in liver tissues (μg/g) was calculated according to the fluorescence value using a standard curve.
Procedure for in vivo: Blood was collected from the retro-orbital plexus at designated time points and they were kept in cold heparin coated glass tubes. The blood from 1 male and 1 female was pooled and plasma was isolated and stored at −80°C until analysis. […] Pharmacokinetic parameters was determined from the concentration-time data by non compartment model using the 3P97 software (Practical Pharmacokinetics Software, Beijing, China).

`CS(=O)(=O)CCNCc1ccc(-c2ccc3ncnc(Nc4ccc(OCc5cccc(F)c5)c(Cl)c4)c3c2)o1` [Lapatinib]: the “increase of fluorescent index of doxorubicin” value in the data set on Swiss mice liver tissues is listed as 2.46 fold. In addition, the “ABCB1 RNA and protein expressions” value with ABCB1 is given as “not significantly altered”. In addition, in the data set on HepG2 cells [1], the “effect on cytotoxicity of doxorubicin” value is reported as “not in the parental HepG2 cells”. Further, in [2], the half-life result is “approximately 17 h” and the “highest peak plasma lapatinib concentration” value is reported as “roughly 3 μM”. For the same compound, in the data set on HepG2 cells [3], the “intracellular accumulation of doxorubicin” value is “not altered” and the “intracellular accumulation of rhodamine 123” value is reported as “not altered”. Besides, the “effect on cytotoxicity of doxorubicin” value in data set [4] was “enhance the cytotoxicity effect of doxorubicin in HepG2/Adr cells in a concentration-dependent manner”.

Turning to `COc1cccc2c1C(=O)c1c(O)c3c(c(O)c1C2=O)C[C@@](O)(C(=O)CO)C[C@@H]3O[C@H]1C[C@H](N)[C@H](O)[C@H](C)O1` [Doxorubicin], the “liver histology (HE staining)” value in the data set on liver is “mild central venous hyperemia, Hepatic cord disorder and vacuolar degeneration”. In “in vivo” (in vivo, 10 mg/kg), the area under the curve AUC(0-inf) amounted to 2960 ± 878 ng·h/mL, the AUC(0-t) was 2920 ± 841 ng·h/mL and the Vd was 0.00339 ± 0.00121 L. In addition, in “in vivo” (plasma, 10 mg/kg), the MRT is 7.51 ± 1.08 h and the half-life was 5.2 ± 0.75 h.

For the compound `CC(=O)O[C@H]1C(=O)[C@@]2(C)[C@H]([C@H](OC(=O)c3ccccc3)[C@]3(O)C[C@H](OC(=O)[C@H](O)[C@@H](NC(=O)c4ccccc4)c4ccccc4)C(C)=C1C3(C)C)[C@]1(OC(C)=O)CO[C@@H]1C[C@@H]2O` [Paclitaxel, paclitaxel], in data set [5], the “patients who showed grade 1 abnormal hepatic function” value turned out to be 2 patients. Also, in the data set with liver, the “liver histology (HE staining)” value is recorded as “mild liver damage”. In addition, in “in vivo” (in vivo, 18 mg/kg), the MRT was determined as 1.42 ± 0.08 h, the Vd turned out to be 0.015 ± 0.00128 L, the clearance was 0.139 mL/min and the half-life was 1.24 ± 0.06 h.

Source of the values: article PMC4627342 (Oncotarget, 2015).
